Like-named read-outs stand apart in the source and are kept apart here.
How the values were obtained:
K-562 = assay: Inhibition of cells growth by colorimetric assay (SRB), K-562; type: cell-based; conditions: SRB, 48 hours exposure; for GI50 / LC50 (50% cell killing): Homo sapiens, K562, 48 h; for GI50 / K-562 TGI: K-562; for GI50: read-out: K-562 GI50; for LC50 (50% cell killing): read-out: K-562 LC50, K-562
In short: (§1)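 Growth inhibition is measured by sulforhodamine B staining of TCA-fixed cells after 48 h of compound exposure across 10 to 10^−8 μg/ml. Cells are seeded at 5×10^3 per well and grown drug-free for 18 h beforehand; absorbance at 490 nm yields GI, TGI and LC values.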

A-549 = assay: Inhibition of cells growth by colorimetric assay (SRB), A-549; type: cell-based; conditions: SRB, 48 hours exposure; for GI50 / LC50 (concentration for 50% cell killing): Homo sapiens, A549, 48 h; for LC50 (concentration for 50% cell killing): read-out: A-549 LC50, A-549
In short: as §1

SK-MEL-28 = assay: Inhibition of cells growth by colorimetric assay (SRB), SK-MEL-28; type: cell-based; conditions: SRB, 48 hours exposure; for GI50 / CC50: Homo sapiens, SK-MEL-28, 48 h; for GI50 / MEL-28 TGI: MEL-28; for GI50: read-out: MEL-28 GI50; for CC50: read-out: MEL-28 LC50, MEL-28
In short: as §1

HT-29 = assay: Inhibition of cells growth by colorimetric assay (SRB), HT-29; type: cell-based; conditions: SRB, 48 hours exposure; for GI50 / LC50 (concentration for 50% cell killing): Homo sapiens, HT-29, 48 h; for HT-29 TGI / GI50: HT-29; for GI50: read-out: HT-29 GI50; for LC50 (concentration for 50% cell killing): read-out: HT-29 LC50, HT-29
In short: as §1

LoVo = assay: Inhibition of cells growth by colorimetric assay (SRB), LoVo; type: cell-based; conditions: SRB, 48 hours exposure; for GI50 / LC50 (concentration for 50% cell killing): Homo sapiens, LoVo, 48 h; for GI50 / LOVO TGI: LOVO; for GI50: read-out: LOVO GI50; for LC50 (concentration for 50% cell killing): read-out: LOVO LC50, LOVO
In short: as §1

LoVo-Dox = assay: Inhibition of cells growth by colorimetric assay (SRB), LoVo-Dox; type: cell-based; conditions: SRB, 48 hours exposure; for GI50 / CC50: Homo sapiens, 48 h; for GI50 / LOVO-DOX TGI: LOVO-DOX; for GI50: read-out: LOVO-DOX GI50; for CC50: read-out: LOVO-DOX LC50, LOVO-DOX
In short: as §1

DU-145 = assay: Inhibition of cells growth by colorimetric assay (SRB), DU-145; type: cell-based; conditions: SRB, 48 hours exposure; for GI50 / CC50: Homo sapiens, DU-145, 48 h; for DU-145 TGI / GI50: DU-145; for GI50: read-out: DU-145 GI50; for CC50: read-out: DU-145 LC50, DU-145
In short: as §1

LNCaP = assay: Inhibition of cells growth by colorimetric assay (SRB), LNCaP; type: cell-based; conditions: SRB, 48 hours exposure; for GI50 / CC50: Homo sapiens, LNCaP, 48 h; for GI50: read-out: LNCAP GI50, LNCAP; for CC50: read-out: LNCAP LC50, LNCAP
In short: as §1

SK-BR-3 = assay: Inhibition of cells growth by colorimetric assay (SRB), SK-BR-3; type: cell-based; conditions: SRB, 48 hours exposure; for GI50 / CC50: Homo sapiens, SK-BR-3, 48 h; for GI50 / SK-BR3 TGI: SK-BR3; for GI50: read-out: SK-BR3 GI50; for CC50: read-out: SK-BR3 LC50, SK-BR3
In short: as §1

IGROV-1 = assay: Inhibition of cells growth by colorimetric assay (SRB), IGROV-1; type: cell-based; conditions: SRB, 48 hours exposure; for GI50 / CC50: Homo sapiens, IGROV-1, 48 h; for GI50 / IGROV TGI: IGROV; for GI50: read-out: IGROV GI50; for CC50: read-out: IGROV LC50, IGROV
In short: as §1

IGROV-ET = assay: Inhibition of cells growth by colorimetric assay (SRB), IGROV-ET; type: cell-based; conditions: SRB, 48 hours exposure; for GI50 / CC50: Homo sapiens, 48 h; for GI50 / IGROV-ET TGI: IGROV-ET; for GI50: read-out: IGROV-ET GI50; for CC50: read-out: IGROV-ET LC50, IGROV-ET
In short: as §1

SK-OV-3 = assay: Inhibition of cells growth by colorimetric assay (SRB), SK-OV-3; type: cell-based; conditions: SRB, 48 hours exposure; for GI50 / LC50: Homo sapiens, SK-OV-3, 48 h; for GI50 / SK-OV3 TGI: SK-OV3; for GI50: read-out: SK-OV3 GI50; for LC50: read-out: SK-OV3 LC50, SK-OV3
In short: as §1

PANC-1 = assay: Inhibition of cells growth by colorimetric assay (SRB), PANC-1; type: cell-based; conditions: SRB, 48 hours exposure; for GI50 / LC50 (concentration for 50% net cell kill): Homo sapiens, PANC-1, 48 h; for GI50 / PANC-1 TGI: PANC-1; for GI50: read-out: PANC-1 GI50; for LC50 (concentration for 50% net cell kill): read-out: PANC-1 LC50, PANC-1
In short: as §1

HMEC1 = assay: Inhibition of cells growth by colorimetric assay (SRB), HMEC1; type: cell-based; conditions: SRB, 48 hours exposure; for GI50 / LC50: Homo sapiens, HMEC-1, 48 h; for HMEC-1 TGI / GI50: HMEC-1; for GI50: read-out: HMEC-1 GI50; for LC50: read-out: HMEC-1 LC50, HMEC-1
In short: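 Using sulforhodamine B, cell growth and viability are quantified after a 48 h drug exposure of cells maintained in RPMI 1640/10% FBS at 37 °C, 5% CO2. Concentrations span 10 to 10^−8 μg/ml; optical density is read at 490 nm.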

Description for Heart: (§2) Toxicity was asssessed by the methods reported in Toxicology in Vitro, 15 (2001) 571-577, J. Luber Narod et al.: “Evaluation of the use of in vitro methodolodies as tools for screening new compounds for potential in vivo toxicity”.
Description for Kidney: as §2
Description for Liver: as §2
Description for Myelo: as §2
Description for Skeletal: as §2

SMILES: COc1cc2c(cc1OC)[C@@]1(CS[C@@H]3c4c(OC(C)=O)c(C)c5c(c4[C@H](COC1=O)N1C3[C@H]3c4c(cc(C)c(OC)c4OC)C[C@@H]([C@@H]1O)N3C)OCO5)NCC2 (stereo partly shown) [Compound 87]
- GI50 (K-562): 0.871 nM
- LC50 (50% cell killing) (K-562): 7.15 nM
- K-562 TGI (K-562): 2.96E-09
- TGI A-549 (A-549; A-549): 4.77E-08
- GI50 (A-549; A-549, read-out: GI50 A-549): 23.8 nM
- LC50 (concentration for 50% cell killing) (A-549): 95.8 nM
- GI50 (SK-MEL-28): 19.2 nM
- CC50 (SK-MEL-28): 109 nM
- MEL-28 TGI (SK-MEL-28): 4.57E-08
- HT-29 TGI (HT-29): 1.12E-07
- GI50 (HT-29): 24.4 nM
- LC50 (concentration for 50% cell killing) (HT-29): 380 nM
- GI50 (LoVo): 22.7 nM
- LC50 (concentration for 50% cell killing) (LoVo): 123 nM
- LOVO TGI (LoVo): 5.27E-08
- GI50 (LoVo-Dox): 38.7 nM
- CC50 (LoVo-Dox): 12700 nM
- LOVO-DOX TGI (LoVo-Dox): 1.42E-07
- DU-145 TGI (DU-145): 5.22E-08
- GI50 (DU-145): 13.5 nM
- CC50 (DU-145): 180 nM
- GI50 (LNCaP): 4.73 nM
- CC50 (LNCaP): 40.5 nM
- LNCAP TGI (LNCaP): 1.12E-08
- GI50 (SK-BR-3): 16.5 nM
- CC50 (SK-BR-3): 101 nM
- SK-BR3 TGI (SK-BR-3): 4.08E-08
- GI50 (IGROV-1): 4.8 nM
- CC50 (IGROV-1): 80.4 nM
- IGROV TGI (IGROV-1): 1.63E-08
- GI50 (IGROV-ET): 28.4 nM
- CC50 (IGROV-ET): 5840 nM
- IGROV-ET TGI (IGROV-ET): 7.77E-08
- GI50 (SK-OV-3): 21.6 nM
- LC50 (SK-OV-3): 8990 nM
- SK-OV3 TGI (SK-OV-3): 6.56E-08
- GI50 (PANC-1): 25.3 nM
- LC50 (concentration for 50% net cell kill) (PANC-1): 876 nM
- PANC-1 TGI (PANC-1): 7.39E-08
- HMEC-1 TGI (HMEC1): 9.65E-08
- GI50 (HMEC1): 16.7 nM
- LC50 (HMEC1): 12700 nM
- Toxicity Data Liver (Liver): 6.18E-08
- Toxicity Data Heart (Heart): 3.60E-08
- Toxicity Data Myelo (Myelo): 2.44E-07
- Toxicity Data Skeletal (Skeletal): 2.00E-07
- Toxicity Data Kidney (Kidney): 8.09E-08

SMILES: COc1cc2c(cc1O)CCN(C)[C@]21CS[C@@H]2c3c(OC(C)=O)c(C)c4c(c3[C@H](COC1=O)N1C2[C@H]2c3c(cc(C)c(OC)c3O)C[C@@H]([C@@H]1O)N2C)OCO4 (stereo partly shown) [Compound 93]
- GI50 (K-562): 0.611 nM
- LC50 (50% cell killing) (K-562): 9540 nM
- K-562 TGI (K-562): 1.29E-08
- A-549 TGI (A-549; A-549): 2.90E-09
- GI50 (A-549; A-549, read-out: A-549 GI50): 0.463 nM
- LC50 (concentration for 50% cell killing) (A-549): 12.9 nM
- GI50 (SK-MEL-28): 0.281 nM
- CC50 (SK-MEL-28): 3.58 nM
- MEL-28 TGI (SK-MEL-28): 6.24E-10
- HT-29 TGI (HT-29): 1.29E-08
- GI50 (HT-29): 0.635 nM
- LC50 (concentration for 50% cell killing) (HT-29): 12900 nM
- GI50 (LoVo): 0.768 nM
- LC50 (concentration for 50% cell killing) (LoVo): 12900 nM
- LOVO TGI (LoVo): 4.58E-09
- GI50 (LoVo-Dox): 7.71 nM
- CC50 (LoVo-Dox): 12900 nM
- LOVO-DOX TGI (LoVo-Dox): 9.87E-08
- DU-145 TGI (DU-145): 6.30E-10
- GI50 (DU-145): 0.331 nM
- CC50 (DU-145): 1.29 nM
- GI50 (LNCaP): 2.85 nM
- CC50 (LNCaP): 129 nM
- LNCAP TGI (LNCaP): 6.77E-09
- GI50 (SK-BR-3): 0.445 nM
- CC50 (SK-BR-3): 9.5 nM
- SK-BR3 TGI (SK-BR-3): 1.96E-09
- GI50 (IGROV-1): 0.214 nM
- CC50 (IGROV-1): 129 nM
- IGROV TGI (IGROV-1): 6.46E-10
- GI50 (IGROV-ET): 21.5 nM
- CC50 (IGROV-ET): 12900 nM
- IGROV-ET TGI (IGROV-ET): 1.31E-07
- GI50 (SK-OV-3): 0.409 nM
- LC50 (SK-OV-3): 12900 nM
- SK-OV3 TGI (SK-OV-3): 1.29E-09
- GI50 (PANC-1): 0.314 nM
- LC50 (concentration for 50% net cell kill) (PANC-1): 12900 nM
- PANC-1 TGI (PANC-1): 1.29E-09
- HMEC-1 TGI (HMEC1): 1.55E-10
- GI50 (HMEC1): 0.037 nM
- LC50 (HMEC1): 0.487 nM
- Toxicity Data Liver (Liver): 1.13E-08
- Toxicity Data Heart (Heart): 4.46E-08
- Toxicity Data Myelo (Myelo): 3.35E-09
- Toxicity Data Skeletal (Skeletal): 5.52E-10
- Toxicity Data Kidney (Kidney): 6.32E-08
